Test results published in patent US11129810B2, “Dosage regimen for the treatment of acute exacerbations of chronic obstructive pulmonary disease” (MEREO BIOPHARMA 1 LIMITED, priority 2016, dated 2021).

Assays:
[1] = Highest safe dose based on toxicology margins
Experimental: However, in order to initiate suppression of the inflammatory response the Day 1 dose in both regimes is higher than the doses on Days 3 and 5. The ‘high’ dosing regimen (regimen 1) is initiated at 75 mg which is the highest dose which can be safely administered based on toxicology margins whereas the ‘low’ dose regimen is initiated at a 40 mg dose which approximates to the mid-point in the TNF-α response curve.

[2] = Human plasma PK of the Day 1, 3 and 5 dosing regimen; format: in vivo
Text: This study investigated the efficacy, safety and tolerability of two different dosing regimens of 3-[5-amino-4-(3-cyanobenzoyl)-pyrazol-1-yl]-N-cyclopropyl-4-methylbenzamide added to SoC (systemic corticosteroids and/or antibiotics) versus placebo added to SoC in subjects with severe acute exacerbations of COPD. The proposed doses take into account trough levels based on PK modelling to ensure that the drug rapidly achieves and remains at effective concentrations between doses.
(§1) A number of PK studies have been performed looking at both dosing intervals (Days 1, 3 and 5 (FIGS. 1-4, top panels) versus Days 1, 4 and 7 (FIGS. 1-4 bottom panels)), as well as dose levels (approximately 75/40/40 mg (FIG. 1); approximately 75/20/20 (FIG. 2); approximately 40/40/40 mg (FIG. 3); approximately 40/20/20 mg (FIG. 4), etc.). Based on exposures of the various regimens, there is limited benefit in dosing beyond Day 5 for a typical exacerbation.
Dosing at Day 1, 3 and 5, maintains drug levels above 220 ng/mL out to approximately 140 to 150 hours. This achieves a plasma concentration of 5.7 μM.
The concentration based on free fraction is at or above 740 nM for the duration of the dosing interval. Cmax is approximately 2 μM based on the first dose. […] Assuming a PK variability of 50%, drug levels are 3 to 5 times above the K and so would produce high levels of inhibition, potentially in the range of 90 to 99%.

[3] = Plasma protein binding (free fraction) in human plasma samples; format: in vitro ADME
TNF-α = TNF-α levels after single oral doses versus placebo (ex vivo LPS-challenged blood samples); format: in vivo, human
Experimental: as §1
Part 1 of study CBCT197A2101 was a randomized, double-blind, placebo-controlled, ascending single-dose study to evaluate safety, tolerability, PK and PD of oral 3-[5-amino-4-(3-cyanobenzoyl)-pyrazol-1-yl]-N-cyclopropyl-4-methylbenzamide in healthy subjects. Part 2 was a 14-day, randomized, double-blind, placebo-controlled, ascending multiple dose study evaluating the PK and PD of oral 3-[5-amino-4-(3-cyanobenzoyl)-pyrazol-1-yl]-N-cyclopropyl-4-methylbenzamide. PD effect of 3-[5-amino-4-(3-cyanobenzoyl)-pyrazol-1-yl]-N-cyclopropyl-4-methylbenzamide in Parts 1 and 2 was assessed by measuring TNFa levels in ex vivo LPS-challenged blood samples. […] Part 3 of the study determined the effect of a single oral administration of 3-[5-amino-4-(3-cyanobenzoyl)-pyrazol-1-yl]-N-cyclopropyl-4-methylbenzamide on serum TNFa levels after in vivo intravenous LPS challenge.

[4] = single oral dose; WO 2013/139809; cited from earlier work

SMILES: Cc1ccc(C(=O)NC2CC2)cc1-n1ncc(C(=O)c2cccc(C#N)c2)c1N [3-[5-amino-4-(3-cyanobenzoyl)-pyrazol-1-yl]-N-cyclopropyl-4-methylbenzamide]
- highest dose which can be safely administered based on toxicology margins [1]: 75 mg
- plasma concentration ([2]; dosing at Day 1, 3 and 5): 5700 nM
- drug levels maintained ([2]; dosing at Day 1, 3 and 5, out to approximately 140 to 150 hours): above 220 ng/mL
- concentration based on free fraction ([2]; for the duration of the dosing interval): ≥ 740 nM
- Cmax ([2]; human, plasma, oral, based on the first dose): ~2000 nM
- enzyme inhibition ([2]; occurs for 6 days, from drug levels versus Ki and IC50): > 99%
- fraction unbound [3]: 0.13 to 0.25
- reduction in TNF-α levels (TNF-α; doses ranging from 0.1 to 75 mg): dose-dependent reduction
- dose approximating the mid-point in the TNF-α response curve (TNF-α; in vivo): ~40 mg
- effect on recovery of AECOPD to the stable disease state [4]: accelerates the recovery to the stable disease state
